For 33 compounds, chromatographic logP results are on record in US7238697B2, “Pyridylpyrimidines for use as pesticides” (Bayer CropScience AG, priority 2001, dated 2007).

The series is described as follows: log P determination by HPLC (reversed-phase C18), EEC Directive 79/831 Annex V.A8. The series is classed as physicochemical. The conditions noted are these: reversed-phase C18 HPLC column; pH 2.3; HPLC, reversed-phase C 18, 43° C., 0.1% aqueous phosphoric acid/acetonitrile; read-out: log P (pH 2.3). The protocol: The stated log P values were determined in accordance with EEC Directive 79/831 Annex V.A8 by HPLC (High Performance Liquid Chromatography) using a reversed-phase column, (C 18). Temperature: 43° C. Mobile phases for the determination in the acidic range: 0.1% aqueous phosphoric acid, acetonitrile; linear gradient from 10% acetonitrile to 90% acetonitrile. Calibration was carried out using unbranched alkan-2-ones (having 3 to 16 carbon atoms) with known logP values (determination of the logP values by the retention times using linear interpolation between two successive alkanones).
Turning to `CCCOC(=O)C(Sc1nccc(-c2ccccn2)n1)C(C)C` (stereo not drawn) [Example 80], the chromatographic logP stood at 3.96.

Consider `O=C(CSc1nccc(-c2ccccn2)n1)OCCc1ccccc1` [Example 83], for which the chromatographic logP is 3.37.

`CCOC(=O)CCCOC(=O)CSc1nccc(-c2ccccn2)n1` [Example 84]: the chromatographic logP was 2.72.

Consider `CCCCCCCCCCOC(=O)CSc1nccc(-c2ccccn2)n1` [Example 85], for which the chromatographic logP was 6.15.

`CCCCCCCCCCCCOC(=O)CSc1nccc(-c2ccccn2)n1` [Example 86]: the chromatographic logP amounted to 7.22.

With `O=C(CSc1nccc(-c2ccccn2)n1)OCCCCOc1ccccc1` [Example 88], the chromatographic logP is 3.86.

As for `CC(C)CCOC(=O)CSc1nccc(-c2ccccn2)n1` [Example 89], the chromatographic logP came out at 3.56.

Take `O=C(CSc1nccc(-c2ccccn2)n1)OCCCOc1ccc(F)cc1` [Example 91]: the chromatographic logP came to 3.59.

Take `CC(=O)OCCCCCOC(=O)CSc1nccc(-c2ccccn2)n1` [Example 93]: the chromatographic logP was 2.82.

With `CC(C)(C)OC(=O)CCCOC(=O)CSc1nccc(-c2ccccn2)n1` [Example 94], the chromatographic logP stood at 3.48.

Consider `N#CCCCCOC(=O)CSc1nccc(-c2ccccn2)n1` [Example 95], for which the chromatographic logP turned out to be 2.29.

Consider `CC(C)=CCOC(=O)CSc1nccc(-c2ccccn2)n1` [Example 96], for which the chromatographic logP was found to be 3.18.

Regarding `CCOCCOC(=O)CSc1nccc(-c2ccccn2)n1` [Example 98], the chromatographic logP came to 2.34.

For `O=C(CSc1nccc(-c2ccccn2)n1)OCCN1CCCCC1` [Example 99], the chromatographic logP worked out at 1.04.

Consider `CCCCOC(=O)CSc1nccc(-c2ccccn2)n1` [Example 100], for which the chromatographic logP is 3.07.

For the compound `COC(=O)CSc1nc(-c2ccccn2)cc(-c2ccccn2)n1` [Example 101], the chromatographic logP came to 2.81.

For the compound `CCOC(=O)CSc1nccc(-c2cc(C)ccn2)n1` [Example 102], the chromatographic logP is 2.2.

Consider `COC(=O)CSc1nccc(-c2cc(C)ccn2)n1` [Example 103], for which the chromatographic logP was 1.8.

For `CCOC(=O)CSc1nccc(-c2cccc(OCC)n2)n1` [Example 104], the chromatographic logP was determined as 3.67.

In the case of `CCOC(=O)CSc1nccc(-c2cccc(C)n2)n1` [Example 105], the chromatographic logP is 2.46.

`COC(=O)CSc1nc(-c2ccccn2)cc(-c2ccco2)n1` [Example 106]: the chromatographic logP turned out to be 3.01.

Consider `COC(=O)CSc1nc(-c2ccc(OC)cc2)cc(-c2ccccn2)n1` [Example 107], for which the chromatographic logP was determined as 3.5.

Turning to `COC(=O)C[S+]([O-])c1nccc(-c2ccccn2)n1` (stereo not drawn) [Example 108], the chromatographic logP amounted to 0.89.

For the compound `COC(=O)CSc1nc(-c2ccccc2)cc(-c2ccccn2)n1` [Example 109], the chromatographic logP stood at 3.57.

`O=C(CSc1nccc(-c2ccccn2)n1)OCCCN1CCCCC1` [Example 110]: the chromatographic logP amounted to 1.13.

`CCOC(=O)CSc1nccc(-c2cccc(Cl)n2)n1` [Example 111]: the chromatographic logP came to 3.19.

As for `COC(=O)CSc1nc(-c2ccccn2)cc(C(C)C)n1` [Example 112], the chromatographic logP was determined as 3.11.

Take `CCOC(=O)C(F)Sc1nccc(-c2ccccn2)n1` (stereo not drawn) [Example 113]: the chromatographic logP was found to be 2.55.

Regarding `COC(=O)CSc1nc(-c2ccccn2)cc(C(F)(F)F)n1` [Example 114], the chromatographic logP worked out at 3.34.

Regarding `CCOC(=S)CSc1nccc(-c2ccccn2)n1` [Example 115], the chromatographic logP was found to be 3.3.

As to `O=C(CSc1nccc(-c2ccccn2)n1)OCC(F)F` [Example 116], the chromatographic logP came out at 2.25.

`O=C(CSc1nccc(-c2ccccn2)n1)OCC(F)(F)F` [Example 117]: the chromatographic logP was 2.69.

In the case of `O=C(CSc1nccc(-c2ccccn2)n1)OCC(F)(F)C(F)(F)F` [Example 118], the chromatographic logP was 3.24.
